Assay results reported in ChEMBL document CHEMBL1140892, “Synthesis and evaluation of rifabutin analogs against Mycobacterium avium and H(37)Rv, MDR and NRP Mycobacterium tuberculosis” (Bioorg Med Chem, 2009).
In brackets after ≈: the same amount, converted by molar mass. Activity calls are given as the source filed them. The calls are words filed in the database; no cut-off is given here.

Legend:
[1] = tested on: Mycobacterium tuberculosis; assay: Antimycobacterial activity against Mycobacterium tuberculosis H37Rv after 7 days by resazurin method; assay type: functional; settings: 168 h
Mycobacterium avium [2] = assay: Antimycobacterial activity against Mycobacterium avium 1581 at 0.4 mg/mL after 15 days relative to control; assay type: functional; settings: for inhibition at 400 µg/mL: 360 h
[3] = Selectivity index, ratio of IC50 for african green monkey Vero cells to MIC for non-replicating Mycobacterium tuberculosis; assay type: functional
[4] = tested on: Mycobacterium tuberculosis; assay: Antimycobacterial activity against non-replicating Mycobacterium tuberculosis assessed as colony forming unit after 8 days; assay type: functional; settings: 192 h
Vero = assay: Cytotoxicity against african green monkey Vero cells after 72 hrs by MTS assay; assay type: cell-based; settings: Chlorocebus sabaeus
[5] = tested on: Mycobacterium tuberculosis; assay: Antimycobacterial activity against non-replicating Mycobacterium tuberculosis assessed as luciferase activity incubated for 8 days measured after 24 hrs of incubation by low oxygen recover assay; assay type: functional
Mycobacterium avium [6] = assay: Antimycobacterial activity against Mycobacterium avium 1581 at 0.2 mg/mL after 15 days relative to control; assay type: functional; settings: 360 h
[7] = tested on: Mycobacterium tuberculosis; assay: Antimycobacterial activity against Mycobacterium tuberculosis H37Rv infected in BALB/c mouse assessed as reduction of bacterial load in lungs at 25 mg/kg/day, intragastrically after 1 month relative to control; assay type: functional, organism-based
[8] = tested on: Mycobacterium tuberculosis; assay: Antimycobacterial activity against Mycobacterium tuberculosis H37Rv infected in BALB/c mouse assessed as reduction of bacterial load in lungs at 5 mg/kg/day, intragastrically after 1 month relative to control; assay type: functional, organism-based
[9] = tested on: Mycobacterium tuberculosis; assay: Antimycobacterial activity against Mycobacterium tuberculosis H37Rv infected in BALB/c mouse assessed as lungs affected by pneumonia at 25 mg/kg/day, intragastrically after 1 month by histopathology study relative to control; assay type: functional, organism-based
Mycobacterium avium [10] = assay: Antimycobacterial activity against Mycobacterium avium 1581 at 0.1 mg/mL after 15 days relative to control; assay type: functional; settings: 360 h

| SMILES | MIC [1] | Activity (Mycobacterium avium [2]) | Selectivity ratio [3] | MBC [4] | IC50 (Vero) | MIC [5] | inhibition at 200 µg/mL (Mycobacterium avium [6]) | inhibition at 400 µg/mL (Mycobacterium avium [2]) | Activity [7] | Activity [8] | Activity [9] | inhibition at 100 µg/mL (Mycobacterium avium [10]) |
| --- | --- | --- | --- | --- | --- | --- | --- | --- | --- | --- | --- | --- |
| CO[C@H]1/C=C/O[C@@]2(C)Oc3c(C)c(O)c4c(c3C2=O)C2=NC3(CC[N+]([O-])(CC(C)C)CC3)NC2=C(NC(=O)/C(C)=C\C=C\[C@H](C)[C@H](O)[C@@H](C)[C@@H](O)[C@@H](C)[C@H](O)[C@@H]1C)C4=O (stereo partly specified) | 0.6 µg/mL (≈ 0.731 µM) | inactive |  |  |  |  |  |  |  |  |  |  |
| CO[C@H]1/C=C/O[C@@]2(C)Oc3c(C)c(O)c4c(c3C2=O)C2=NC3(CC[N+]([O-])(CC(C)C)CC3)NC2=C(NC(=O)/C(C)=C\C=C\[C@H](C)[C@H](O)[C@@H](C)[C@@H](O)[C@@H](C)[C@H](OC(C)=O)[C@@H]1C)C4=O (stereo partly specified) | 0.2 µg/mL (≈ 0.232 µM) | inactive | >82 | 0.28 µM (≈ 0.242 µg/mL) | > 35.8 µM | 0.44 µM (≈ 0.38 µg/mL) |  |  |  |  |  |  |
| CO[C@H]1/C=C/O[C@@]2(C)Oc3c(C)c(O)c4c(c3C2=O)C2=NC3(CCN(CC(C)C)CC3)NC2=C(NC(=O)/C(C)=C\C=C\[C@H](C)[C@H](O)[C@@H](C)[C@@H](O)[C@@H](C)[C@H](O)[C@@H]1C)C4=O | 0.025 µg/mL (≈ 0.0311 µM) |  | >161 | 0.18 µM (≈ 0.145 µg/mL) | > 46.6 µM | 0.29 µM (≈ 0.233 µg/mL) | 91% | > 99% |  |  |  |  |
| CO[C@H]1/C=C/O[C@@]2(C)Oc3c(C)c(O)c4c(c3[C@H]2O)C2=NC3(CCN(CC(C)C)CC3)N(C(C)=O)C2=C(NC(=O)/C(C)=C\C=C\[C@H](C)[C@H](O)[C@@H](C)[C@@H](O)[C@@H](C)[C@H](OC(C)=O)[C@@H]1C)C4=O | 0.1 µg/mL (≈ 0.112 µM) |  |  |  |  |  | 54% | > 99% |  |  |  |  |
| CCCCCCCCCCCCCCCC(=O)N1C2=C3NC(=O)/C(C)=C\C=C\[C@H](C)[C@H](O)[C@@H](C)[C@@H](O)[C@@H](C)[C@H](OC(C)=O)[C@H](C)[C@@H](OC)/C=C/O[C@@]4(C)Oc5c(C)c(O)c(c(c5C4=O)C2=NC12CCN(CC(C)C)CC2)C3=O | 0.1 µg/mL (≈ 0.0921 µM) |  | >32 | 0.14 µM (≈ 0.152 µg/mL) | > 34.8 µM | 1.08 µM (≈ 1.17 µg/mL) |  |  |  |  |  |  |
| CO[C@H]1/C=C/O[C@@]2(C)Oc3c(C)c(O)c4c(c3C2=O)C2=NC3(CCN(CC(C)C)CC3)N(C(C)=O)C2=C(NC(=O)/C(C)=C\C=C\[C@H](C)[C@H](O)[C@@H](C)[C@@H](O)[C@@H](C)[C@H](OC(C)=O)[C@@H]1C)C4=O | < 0.013 µg/mL |  | >331 | 0.18 µM (≈ 0.16 µg/mL) | > 92.7 µM | 0.28 µM (≈ 0.249 µg/mL) | > 99% | > 99% | Active | Active |  |  |
| CO[C@H]1/C=C/O[C@@]2(C)Oc3c(C)c(O)c4c(O)c(c(/C=N/N5CCN(C)CC5)c(O)c4c3C2=O)NC(=O)/C(C)=C\C=C\[C@H](C)[C@H](O)[C@@H](C)[C@@H](O)[C@@H](C)[C@H](OC(C)=O)[C@@H]1C [RIFAMPIN] |  |  | 98 | 0.39 µM (≈ 0.321 µg/mL) | 138 µM | 1.41 µM (≈ 1.16 µg/mL) |  |  |  |  |  |  |
| CO[C@H]1/C=C/O[C@@]2(C)Oc3c(C)c(O)c4c(c3[C@H]2O)C2=NC3(CCN(CC(C)C)CC3)NC2=C(NC(=O)/C(C)=C\C=C\[C@H](C)[C@H](O)[C@@H](C)[C@@H](O)[C@@H](C)[C@H](OC(C)=O)[C@@H]1C)C4=O [RIFABUTINOL] | < 0.05 µg/mL |  |  |  |  |  | 86% | > 99% |  |  |  |  |
| C=CCCCCCCCCC(=O)N1C2=C3NC(=O)/C(C)=C\C=C\[C@H](C)[C@H](O)[C@@H](C)[C@@H](O)[C@@H](C)[C@H](OC(C)=O)[C@H](C)[C@@H](OC)/C=C/O[C@@]4(C)Oc5c(C)c(O)c(c(c5C4=O)C2=NC12CCN(CC(C)C)CC2)C3=O | 0.1 µg/mL (≈ 0.0987 µM) |  | 462 | 0.08 µM (≈ 0.0811 µg/mL) | 36.9 µM | 0.08 µM (≈ 0.0811 µg/mL) | 60% | > 99% | inactive | inactive | inactive |  |
| CO[C@H]1/C=C/O[C@@]2(C)Oc3c(C)c(O)c4c(c3[C@H]2O)C2=NC3(CC[N+]([O-])(CC(C)C)CC3)NC2=C(NC(=O)/C(C)=C\C=C\[C@H](C)[C@H](O)[C@@H](C)[C@@H](O)[C@@H](C)[C@H](OC(C)=O)[C@@H]1C)C4=O (stereo partly specified) | 0.6 µg/mL (≈ 0.694 µM) |  |  |  |  |  | 44% | 53% |  |  |  |  |
| CO[C@H]1/C=C/O[C@@]2(C)Oc3c(C)c(O)c4c(c3[C@H]2O)C2=NC3(CCN(CC(C)C)CC3)NC2=C(NC(=O)/C(C)=C\C=C\[C@H](C)[C@H](O)[C@@H](C)[C@@H](O)[C@@H](C)[C@H](O)[C@@H]1C)C4=O | 0.2 µg/mL (≈ 0.248 µM) | inactive |  |  |  |  |  |  |  |  |  |  |
| CO[C@H]1/C=C/O[C@@]2(C)Oc3c(C)c(O)c4c(c3C2=O)C2=NC3(CCN(CC(C)C)CC3)NC2=C(NC(=O)/C(C)=C\C=C\[C@H](C)[C@H](O)[C@@H](C)[C@@H](O)[C@@H](C)[C@H](OC(C)=O)[C@@H]1C)C4=O [RIFABUTIN] | < 0.013 µg/mL |  | >582 | 0.05 µM (≈ 0.0424 µg/mL) | > 46.6 µM | 0.08 µM (≈ 0.0678 µg/mL) | > 99% |  |  |  |  | > 99% |
